The text below walks through data of patent publication US5461044A, “Cephalosporin derivatives” (Meiji Seika Kaisha, Ltd., priority 1991, dated 1995).

Series [1] relates to Escherichia coli NIHJ JC-2. The experiment in a line: Minimum growth inhibition concentration, standard serial dilution method. The class given is cell-based. The method, then: (§1) In this Test Example, the antibacterial activity of some exemplary compounds indicated below and chosen from amongst the compounds of the general formula (I) according to this invention is illustrated by determining their minimum growth inhibition concentrations to various bacteria as measured by a standard serial dilution method. In this case, the determination was carried out by inoculating 10^6 CFU/ml of test bacteria to a culture medium N for sensitive disc (as prepared by Nissui Pharmaceutical Co., Ltd.), incubating the bacteria at 35° C. for 18 to 20 hours, and then evaluating the bacterial growth. Test compounds used are as follows:
(§2) The measured values of the minimum growth inhibition concentrations ([…]) of the above-mentioned compounds A, B and C are shown in Table 1.

In series [2] the test system is Klebsiella pneumoniae PCI602. The series is described as above. The series is classed as cell-based. The method, then: as §1, §2
Series [3] concerns Marganella morganii 1510/S-1. Described as above. The class given is cell-based. Conditions: read-out: Minimum growth inhibition concentration. The method, then: as §1, §2
In another series the test system is Proteus vulgaris GN76. The description is as above. The class given is cell-based. The method, then: as §1, §2
The subject of series [4] is Staphylococcus aureus 209P JC-1. The series is described as above. The class given is cell-based. Conditions: read-out: Minimum growth inhibition concentration. The method, then:
as §1, §2

The subject of series [5] is Staphylococcus epidermidis ATCC14990. The description is as above. The class given is cell-based. As to conditions: 10^6 CFU/ml, 35° C., 18 to 20 hours. The method, then: as §1, §2
Series [6] has as its system Staphylococcus aureus M126. Described as above. The series is classed as cell-based. As to conditions: Staphylococcus aureus M126 (methicillin-resistant); 10^6 CFU/ml, 35° C., 18 to 20 hours. The method, then:
as §1, §2
(§3) Note: (*) means methicillinresistant Staphylococus aureus.

The test system of series [7] is Staphylococcus aureus M133. Described as above. The series is classed as cell-based. As to conditions: Staphylococcus aureus M133 (methicillin-resistant); 10^6 CFU/ml, 35° C., 18 to 20 hours. The method, then: as §1, §2, §3
A short description of series [8]: Concentration in blood upon subcutaneous injection in mice (HPLC, serum). The class given is in vivo, mice of ICR strain. As to conditions: sc, male ICR mice, 0.5 mg per mouse; for half-life / AUC: Gauss-Newton method; for AUC: read-out: AUC (Area under the plasma concentration-time curve); for Cmax: HPLC, read-out: Maximum concentration in blood. The method, then: Test compounds used are as follows:
The test procedure used was as follows. That is, 5 mice of ICR strain (male, 4-weeks-aged, 1 mouse in each group/at the time of collection of blood samples) were used as test animal and 0.5 mg of each test compound dissolved in 0.2 ml of a purified water sterilized for injection was subcutaneously injected to each mouse. Blood samples were collected from each mouse 5 minutes, 15 minutes, 30 minutes, 1 hour and 2 hours after the aministration of test compound. Each blood sample as collected was post-treated in a usual manner and the concentration of the cephem compound in the serum was then quantitatively determined by the use of HPLC (High Performance Liquid Chromatography). A half-life value and AUC which were pharmacokinetic parameters were calculated by the Gauss-Newton method.
AUC means "Area under the plasma concentration-time curve".

Series [9] in a line: Toxicity (LD50) on intravenous administration in mice. Conditions: mouse, in vivo. The method, then:
The cephalosporin derivative of the general formula (I) according to this invention can safely be administered to mammals because it is of low toxicity. […] The new cephalosporin derivative of this invention may be administered orally at a unit dose of 100 mg to 250 mg to an adult human patient four times a day, for a guideline. However, precise dosage of the new cephalosporin derivative of this invention is determinable through preliminary routine experiments, depending on the body weight, ages, sex and other various parameters of patients as well as the nature of the bacterial infections to be treated, and so on.

[10] abbreviates: Proteus vulgaris GN76, 10^6 CFU/ml, 35° C., 18 to 20 hours, read-out: Minimum growth inhibition concentration.
[11] abbreviates: Escherichia coli, NIHJJC2, read-out: Minimum growth inhibition concentration.
Setting [12] is: Klebsiella pneumoniae, PCI602, read-out: Minimum growth inhibition concentration.

Values after ≈ are worked out from the molar mass of the structure shown. Where two headings read alike, the source gives them in different places.

Turning to `Nc1nc(/C(=N/O)C(=O)NC2C(=O)N3C(C(=O)O)=C(Sc4nc5ccccc5s4)CS[C@H]23)cs1` (stereo partly shown) [B, 7-[(Z)-2-(2-aminothiazol-4-yl)-2hydroxyiminoacetamido]-3-(benzothiazol-2-yl)thio-3-cephem-4-carboxylic acid], the MIC was found to be 25 µg/mL (≈ 46.8 µM) in series [1] (NIHJJC2, Escherichia coli NIHJ JC-2, 10^6 CFU/ml, 35° C., 18 to 20 hours, read-out: Minimum growth inhibition concentration); 25 µg/mL (≈ 46.8 µM) in [2] (Klebsiella pneumoniae PCI602, 10^6 CFU/ml, 35° C., 18 to 20 hours, read-out: Minimum growth inhibition concentration); 3.13 µg/mL (≈ 5.85 µM) in series [3]; 100 µg/mL (≈ 187 µM) in the series with Proteus vulgaris GN76 (setting [10]); 0.2 µg/mL (≈ 0.374 µM) in [4]; 0.2 µg/mL (≈ 0.374 µM) in series [5]. The MIC in [6] is 3.13 µg/mL (≈ 5.85 µM); in series [7], 1.56 µg/mL (≈ 2.92 µM).

The half-life is the time needed for the level to fall by half in the phase considered. Lower therefore signals rapid decline. In the case of `Nc1nc(/C(=N/OCC(=O)O)C(=O)NC2C(=O)N3C(C(=O)O)=C(Sc4nc5ccccc5s4)CSC23)cs1` (stereo not shown) [Compound C, 7-[(Z)-2-(2-aminothiazol-4-yl)-2carboxymethoxyiminoacetamido]-3-(benzothiazol-2-yl)thio3-cephem-4-carboxylic acid], the MIC in series [1] (setting [11]) worked out at 3.13 µg/mL (≈ 5.28 µM); in series [2] (setting [12]), 3.13 µg/mL (≈ 5.28 µM); in [3] it was 0.78 µg/mL (≈ 1.32 µM); in the series on Proteus vulgaris GN76 (setting [10]) it was 0.1 µg/mL (≈ 0.169 µM); in series [4], 3.13 µg/mL (≈ 5.28 µM); in [5], 1.56 µg/mL (≈ 2.63 µM). For the same molecule, the MIC was 50 µg/mL (≈ 84.4 µM) in series [6] and 12.5 µg/mL (≈ 21.1 µM) in series [7]. The molecule further gave a half-life in series [8] of 55.2 min. Further, the AUC in [8] was 131000 ng·h/mL. For the same molecule, in [8], the Cmax amounted to 80.8 µg/mL.

As usually defined, the LD50 is the dose at which mortality reaches 50%. A higher LD50 goes with a less toxic substance. `CO/N=C(\C(=O)NC1C(=O)N2C(C(=O)O)=C(Sc3nc4ccccc4s3)CS[C@H]12)c1csc(N)n1` (stereo partly shown) [Compound A, 7-[(Z)-2-(2-aminothiazol-4-yl)-2methoxyiminoacetamido]-3-(benzothiazol-2-yl)thio-3-cephem-4-carboxylic acid]: the MIC in series [1] (setting [11]) came to 3.13 µg/mL (≈ 5.7 µM); in series [2] (setting [12]), 3.13 µg/mL (≈ 5.7 µM); in [3], 0.78 µg/mL (≈ 1.42 µM); in the series on Proteus vulgaris GN76 (Proteus vulgaris, GN76, read-out: Minimum growth inhibition concentration), 3.13 µg/mL (≈ 5.7 µM); in series [4] it was 0.39 µg/mL (≈ 0.711 µM); in series [5] it was 0.2 µg/mL (≈ 0.365 µM). For the same molecule, the MIC amounted to 6.25 µg/mL (≈ 11.4 µM) in [6] and 3.13 µg/mL (≈ 5.7 µM) in series [7]. Besides, in series [8], the half-life is 42 min. Besides, in [8], the AUC came to 62500 ng·h/mL. For the same molecule, the Cmax in [8] was determined as 51.6 µg/mL. In series [9], this molecule displayed an LD50 of 1000 to 1500 mg/kg.
